Test results from US9000016B2, “1,3,4-Oxadiazoles-2-thio derivatives as sphingosine-1 phosphate receptors modulators” (Allergan, Inc., priority 2012, dated 2015).

Biological target: T1, human S1P1 receptor (Homo sapiens, UniProt P21453)
T1 construct: expressed in transfected cells; membranes used
Test: GTP γ35S binding assay for S1P1 activity
Type: biochemical
Conditions: membranes of cells stably expressing the S1P1 receptor, agonist potency
Method: Compounds were synthesized and tested for S1P1 activity using the GTP γ^35S binding assay. These compounds may be assessed for their ability to activate or block activation of the human S1P1 receptor in cells stably expressing the S1P1 receptor.
GTP y^35S binding was measured in the medium containing (mM) HEPES 25, pH 7.4, MgCl210, NaCI 100, dithiothreitol 0.5, digitonin 0.003%, 0.2 nM GTP y^35S, and 5 µg membrane protein in a volume of 150 μl. Test compounds were included in the concentration range from 0.08 to 5,000 nM unless indicated otherwise. Membranes were incubated with 100 μM 5′-adenylylimidodiphosphate for 30 min, and subsequently with 10 μM GDP for 10 min on ice. Drug solutions and membrane were mixed, and then reactions were initiated by adding GTP y^35S and continued for 30 min at 25° C. Reaction mixtures were filtered over Whatman GF/B filters under vacuum, and washed three times with 3 mL of ice-cold buffer (HEPES 25, pH7.4, MgCl210 and NaCI 100). Filters were dried and mixed with scintillant, and counted for ^35S activity using a β-counter. Agonist-induced GTP y^35S binding was obtained by subtracting that in the absence of agonist. Binding data were analyzed using a non-linear regression method. In case of antagonist assay, the reaction mixture contained 10 nM S1 P1 in the presence of test antagonist at concentrations ranging from 0.08 to 5000 nM.

T1 sequence (P21453 whole entry): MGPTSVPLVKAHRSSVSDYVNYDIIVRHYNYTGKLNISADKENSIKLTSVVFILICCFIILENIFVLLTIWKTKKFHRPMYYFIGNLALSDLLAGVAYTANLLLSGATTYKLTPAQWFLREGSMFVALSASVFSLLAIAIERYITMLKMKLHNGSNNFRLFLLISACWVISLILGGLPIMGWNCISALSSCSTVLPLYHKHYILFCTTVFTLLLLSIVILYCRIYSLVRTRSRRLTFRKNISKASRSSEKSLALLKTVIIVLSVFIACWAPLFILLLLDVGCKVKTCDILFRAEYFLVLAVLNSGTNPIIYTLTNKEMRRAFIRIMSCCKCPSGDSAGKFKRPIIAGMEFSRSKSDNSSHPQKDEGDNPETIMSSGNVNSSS

| Structure (SMILES) | EC50 |
| --- | --- |
| Cc1ccc(-c2nnc(SC(C)c3ccc(CNCCCP(=O)(O)O)cc3)o2)cc1C (centres unmarked) [Compound 1, (3-{[4-(1-{[5-(3,4-Dimethylphenyl)-1,3,4-oxadiazol-2-yl]thio}ethyl)benzyl]amino}propyl)phosphonic acid] | 0.082 µM |
| Cc1ccc(-c2nnc(SC(C)c3ccc(CNCCC(=O)O)cc3)o2)cc1C (centres unmarked) [Compound 3, 3-{[4-(1-{[5-(3,4-Dimethylphenyl)-1,3,4-oxadiazol-2-yl]thio}ethyl)benzyl]amino}propanoic acid] | 0.0084 µM |
